Measurements taken from patent US11090319B2, “Therapeutic uses of pharmaceutical compositions comprising cyclic boronic acid ester derivatives” (Melinta Subsidiary Corp., priority 2010, dated 2021).

How the values were obtained:
Test in all cases: Ceftazidime MIC with fixed concentration of BLI
Assay type in all cases: cell-based
[1] = system: ec308 Escherichia coli SHV-5; conditions: derivative at 10 μg/mL; ec308 SHV-5
Description: (§1) Next, ceftazidime potentiation activity of several cyclic boronic acid ester derivatives was tested using a larger panel of strains expressing β-lactamase hydrolyzing enzymes. Ceftazidime MICs were determined alone and in the presence of fixed concentrations of various cyclic boronic acid ester derivatives.

[2] = system: EC1012 Escherichia coli TEM-12; conditions: derivative at 10 μg/mL; EC1012 TEM-12
Description: as §1

[3] = system: ec301 Escherichia coli TEM-6; conditions: derivative at 10 μg/mL; ec301 TEM-6
Description: as §1

[4] = system: KP1010 Klebsiella pneumoniae SHV-12; conditions: derivative at 10 μg/mL; KP1010 SHV-12
Description: as §1

[5] = system: pa1063 Pseudomonas aeruginosa GES-1; conditions: derivative at 10 μg/mL; pa1063 GES-1
Description: as §1

[6] = system: AB1054 Acinetobacter baumannii OXA-23; conditions: derivative at 10 μg/mL; AB1054 OXA-23
Description: as §1

[7] = system: EC1008 Escherichia coli CTX-M3; conditions: derivative at 10 μg/mL
Description: as §1

[8] = system: PAM2035 Pseudomonas aeruginosa ampC mexA:tet; conditions: derivative at 10 μg/mL
Description: as §1

[9] = system: KP1008 Klebsiella pneumoniae KPC-2; conditions: derivative at 10 μg/mL; KP1008 KPC-2
Description: as §1

[10] = system: ec309 Escherichia coli MIR-1; conditions: derivative at 10 μg/mL; ec309 MIR-1
Description: as §1

[11] = system: KP1009 Klebsiella pneumoniae CTX-M-15; conditions: derivative at 10 μg/mL; KP1009 CTX-M-15
Description: as §1

[12] = system: PAM2005 Pseudomonas aeruginosa ampC; conditions: derivative at 10 μg/mL
Description: as §1

[13] = system: EC1011 Escherichia coli TEM-26; conditions: derivative at 10 μg/mL; EC1011 TEM-26
Description: as §1

[14] = system: ec300 Escherichia coli TEM-3; conditions: derivative at 10 μg/mL; ec300 TEM-3
Description: as §1

[15] = system: ECL1002 Enterobacter cloacae Hyper AmpC expression; conditions: derivative at 10 μg/mL
Description: as §1

[16] = system: ec310 Escherichia coli ACT-1; conditions: derivative at 10 μg/mL; ec310 ACT-1
Description: as §1

[17] = system: ec303 Escherichia coli TEM-12; conditions: derivative at 10 μg/mL; ec303 TEM-12
Description: as §1

[18] = system: AB1057 Acinetobacter baumannii OXA-58; conditions: derivative at 10 μg/mL; AB1057 OXA-58
Description: as §1

[19] = system: EC1006 Escherichia coli FOX-5; conditions: derivative at 10 μg/mL; EC1006 FOX-5
Description: as §1

[20] = system: EC1004 Escherichia coli CMY-2; conditions: derivative at 10 μg/mL; EC1004 CMY-2
Description: as §1

[21] = system: ec302 Escherichia coli TEM-10; conditions: derivative at 10 μg/mL; ec302 TEM-10
Description: as §1

[22] = system: KP1005 Klebsiella pneumoniae CTX-M-14; conditions: derivative at 10 μg/mL; KP1005 CTX-M-14
Description: as §1

[23] = system: KX1000 Klebsiella oxytoca OXA-2; conditions: derivative at 10 μg/mL; KX1000 OXA-2
Description: as §1

[24] = system: CF1000 Citrobacter freundii Hyper AmpC expression; conditions: derivative at 10 μg/mL
Description: as §1

[25] = system: ec306 Escherichia coli SHV-2; conditions: derivative at 10 μg/mL; ec306 SHV-2
Description: as §1

[26] = system: EC1014 Escherichia coli DHA-1; conditions: derivative at 10 μg/mL; EC1014 DHA-1
Description: as §1

[27] = system: KP1012 Klebsiella pneumoniae SHV-18; conditions: derivative at 10 μg/mL; KP1012 SHV-18
Description: as §1

[28] = system: EC1009 Escherichia coli TEM-10; conditions: derivative at 10 μg/mL; EC1009 TEM-10
Description: as §1

[29] = system: EC1010 Escherichia coli CMY-6; conditions: derivative at 10 μg/mL; EC1010 CMY-6
Description: as §1

[30] = system: KP1007 Klebsiella pneumoniae OXA-10; conditions: derivative at 10 μg/mL; KP1007 OXA-10
Description: as §1

[31] = system: KP1004 Klebsiella pneumoniae KPC-2; conditions: derivative at 10 μg/mL; KP1004 KPC-2
Description: as §1

Compound	Ceftazidime MIC with cyclic boronic acid ester derivative [1]	Ceftazidime MIC with cyclic boronic acid ester derivative [2]	Ceftazidime MIC with cyclic boronic acid ester derivative [3]	Ceftazidime MIC with cyclic boronic acid ester derivative [4]	Ceftazidime MIC with cyclic boronic acid ester derivative [5]	Ceftazidime MIC with cyclic boronic acid ester derivative [6]	Ceftazidime MIC with cyclic boronic acid ester derivative [7]	Ceftazidime MIC with cyclic boronic acid ester derivative [8]	Ceftazidime MIC with cyclic boronic acid ester derivative [9]	Ceftazidime MIC with cyclic boronic acid ester derivative [10]	Ceftazidime MIC with cyclic boronic acid ester derivative [11]	Ceftazidime MIC with cyclic boronic acid ester derivative [12]	Ceftazidime MIC with cyclic boronic acid ester derivative [13]	Ceftazidime MIC with cyclic boronic acid ester derivative [14]	Ceftazidime MIC with cyclic boronic acid ester derivative [15]	Ceftazidime MIC with cyclic boronic acid ester derivative [16]	Ceftazidime MIC with cyclic boronic acid ester derivative [17]	Ceftazidime MIC with cyclic boronic acid ester derivative [18]	Ceftazidime MIC with cyclic boronic acid ester derivative [19]	Ceftazidime MIC with cyclic boronic acid ester derivative [20]	also measured
O=C(O)CC1CC[C@H](NC(=O)C2CC2)B(O)O1 (stereo partly drawn) [Compound 4, 2-((3R)-3-(cyclopropanecarboxamido)-2-hydroxy-1,2-oxaborinan-6-yl)acetic acid]	Z (MIC of greater than 8 μg/mL)	Z (MIC of greater than 8 μg/mL)	Z (MIC of greater than 8 μg/mL)	Z (MIC of greater than 8 μg/mL)	Z (MIC of greater than 8 μg/mL)	Z (MIC of greater than 8 μg/mL)	Y (MIC of greater than 1 μg/mL to 8 μg/mL)	Z (MIC of greater than 8 μg/mL)	X (MIC of 1 μg/mL or less)	Y (MIC of greater than 1 μg/mL to 8 μg/mL)	Z (MIC of greater than 8 μg/mL)	Z (MIC of greater than 8 μg/mL)	Z (MIC of greater than 8 μg/mL)	Z (MIC of greater than 8 μg/mL)	Y (MIC of greater than 1 μg/mL to 8 μg/mL)	Y (MIC of greater than 1 μg/mL to 8 μg/mL)	Z (MIC of greater than 8 μg/mL)	Z (MIC of greater than 8 μg/mL)	Z (MIC of greater than 8 μg/mL)	Y (MIC of greater than 1 μg/mL to 8 μg/mL)	Ceftazidime MIC with cyclic boronic acid ester derivative [21]: Z (MIC of greater than 8 μg/mL); Ceftazidime MIC with cyclic boronic acid ester derivative [22]: Z (MIC of greater than 8 μg/mL); Ceftazidime MIC with cyclic boronic acid ester derivative [23]: Y (MIC of greater than 1 μg/mL to 8 μg/mL); Ceftazidime MIC with cyclic boronic acid ester derivative [24]: Z (MIC of greater than 8 μg/mL); Ceftazidime MIC with cyclic boronic acid ester derivative [25]: Z (MIC of greater than 8 μg/mL); Ceftazidime MIC with cyclic boronic acid ester derivative [26]: Y (MIC of greater than 1 μg/mL to 8 μg/mL); Ceftazidime MIC with cyclic boronic acid ester derivative [27]: Z (MIC of greater than 8 μg/mL); Ceftazidime MIC with cyclic boronic acid ester derivative [28]: Z (MIC of greater than 8 μg/mL); Ceftazidime MIC with cyclic boronic acid ester derivative [29]: Y (MIC of greater than 1 μg/mL to 8 μg/mL); Ceftazidime MIC with cyclic boronic acid ester derivative [30]: Z (MIC of greater than 8 μg/mL); Ceftazidime MIC with cyclic boronic acid ester derivative [31]: Y (MIC of greater than 1 μg/mL to 8 μg/mL)
O=C(O)C[C@@H]1CC[C@H](NC(=O)Cc2cccs2)B(O)O1 [Compound 5, 2-((3R,6S)-2-hydroxy-3-(2-(thiophen-2-yl)acetamido)-1,2-oxaborinan-6-yl)acetic acid]	Z (MIC of greater than 8 μg/mL)	Y (MIC of greater than 1 μg/mL to 8 μg/mL)	Z (MIC of greater than 8 μg/mL)	Y (MIC of greater than 1 μg/mL to 8 μg/mL)	Z (MIC of greater than 8 μg/mL)	Z (MIC of greater than 8 μg/mL)	Y (MIC of greater than 1 μg/mL to 8 μg/mL)	Y (MIC of greater than 1 μg/mL to 8 μg/mL)	X (MIC of 1 μg/mL or less)	X (MIC of 1 μg/mL or less)	Z (MIC of greater than 8 μg/mL)	Z (MIC of greater than 8 μg/mL)	Z (MIC of greater than 8 μg/mL)	Y (MIC of greater than 1 μg/mL to 8 μg/mL)	Y (MIC of greater than 1 μg/mL to 8 μg/mL)	X (MIC of 1 μg/mL or less)	Y (MIC of greater than 1 μg/mL to 8 μg/mL)	Z (MIC of greater than 8 μg/mL)	Y (MIC of greater than 1 μg/mL to 8 μg/mL)	Y (MIC of greater than 1 μg/mL to 8 μg/mL)	Ceftazidime MIC with cyclic boronic acid ester derivative [21]: Z (MIC of greater than 8 μg/mL); Ceftazidime MIC with cyclic boronic acid ester derivative [22]: Z (MIC of greater than 8 μg/mL); Ceftazidime MIC with cyclic boronic acid ester derivative [23]: Y (MIC of greater than 1 μg/mL to 8 μg/mL); Ceftazidime MIC with cyclic boronic acid ester derivative [24]: Y (MIC of greater than 1 μg/mL to 8 μg/mL); Ceftazidime MIC with cyclic boronic acid ester derivative [25]: Z (MIC of greater than 8 μg/mL); Ceftazidime MIC with cyclic boronic acid ester derivative [26]: X (MIC of 1 μg/mL or less); Ceftazidime MIC with cyclic boronic acid ester derivative [27]: Y (MIC of greater than 1 μg/mL to 8 μg/mL); Ceftazidime MIC with cyclic boronic acid ester derivative [28]: Z (MIC of greater than 8 μg/mL); Ceftazidime MIC with cyclic boronic acid ester derivative [29]: Y (MIC of greater than 1 μg/mL to 8 μg/mL); Ceftazidime MIC with cyclic boronic acid ester derivative [30]: Y (MIC of greater than 1 μg/mL to 8 μg/mL); Ceftazidime MIC with cyclic boronic acid ester derivative [31]: Y (MIC of greater than 1 μg/mL to 8 μg/mL)
